Measurements reported in patent US20210106567A1, “COMPOSITIONS AND METHODS FOR INHIBITING CARP-1 BINDING TO NEMO” (United States Government As Represented By The Department …, priority 2019, published 2021).

Legend:
[1] = target: T1, His-TAT-HA-CARP-1 (551-580) binding with Gst-NEMO (221-261) (Homo sapiens, UniProt Q8IX12); experiment: Pull-down and Western blot with E. coli expressed peptides; details: then washed
T1 construct: His-TAT-HA-CARP-1 (551-580); made in house; host or cells: E. coli BL21
Protocol: (§1) The biochemical mechanism of inhibition of CARP-1 (551-580; SEQ ID NO: 6) binding with NEMO (221-261; SEQ ID NO: 2) by SNI-1 was assessed. E. coli expressed Gst-NEMO (221-261; SEQ ID NO: 2) and His-TAT-HA-CARP-1 (551-580; SEQ ID NO: 6) peptides in IP-WB assays were used. […] Since Adriamycin activates ATM to regulate canonical NF-κB and DSB repair pathways, it remains to be clarified whether CARP-1 regulates RIPK1 signaling dependent and/or independent of ATM.
(§2) The cells were lysed to prepare protein extracts.

[2] = system: HeLa NEMO ko cells; experiment: MTT cell viability; format: cell-based, human
[3] = system: p65/RelA activation and phosphorylation of NEMO; experiment: Western blot for canonical NF-κB activation; format: cell-based; details: in presence of SNI-1
Text: as §2

[4] = target: T2, NEMO interaction with RIPK1 (Homo sapiens, UniProt Q13546+Q9Y6K9); experiment: IP-WB in Gst-NEMO expressing HBC cells, RIPK1; format: cell-based; details: alone or in combination with Adriamycin
T2 construct: expressed in transfected cells; host or cells: HBC cells stably expressing Gst-NEMO
Protocol: as §1, §2

[5] = MTT cell viability; format: cell-based, human; details: human, MDA-MB-231 TNBC cells; 1.0, 2.5, 5.0, or 10.0 μM over 24 h; read-out: loss of viability
Protocol: (§3) The murine TNBC cell line 4T1 that was derived from a spontaneously arising BALB/c mammary tumor were obtained from the Karmanos Cancer Institute (KCl), and were maintained in culture (Cheriyan et al. (2016) Oncotarget 7, 73370-73388). […] The cell culture media were also supplemented with 10% FBS, 100 units/ml of penicillin, and 100 μg/ml of streptomycin, and the cells were maintained at 37° C. and 5% CO2. For cell growth and MTT studies, the cells were cultured in fresh media with 5%-10% FBS prior to their treatments with various agents.
(§4) Cell Viability, Immunoprecipitation and Western Blot assays: 500-1000 cells were seeded in each well of 96 well plate and then either untreated (control) or treated with various agents for noted times. After treatment, MTT reagent was added at 0.5 mg/ml concentration for 2-4 hours at 37° C. DMSO was added to solubilize formazan and the plate was read at 570 nm in a plate reader. The histograms indicating levels of cell viability were generated by plotting the net absorbances (Rishi et al. (2003) J Biol Chem 278, 33422-33435; and Rishi et al. (2006) J Biol Chem 281, 13188-13198).

[6] = system: MDA-MB-231 TNBC cells; experiment: MTT cell viability; format: cell-based, human; details: Homo sapiens, MDA-MB-231, 72 h
Protocol: as §3, §4

[7] = system: 4T1 TNBC tumors; experiment: 4T1 TNBC syngeneic tumor efficacy study in Balb/c mice; format: in vivo, mouse
Protocol: Establishment of TNBC cell-derived xenografts in Syngeneic mice: Generation of 4T1 TNBC cell-derived sub-cutaneous xenografts in Balb/c mice were performed (Cheriyan et al. (2016) Oncotarget 7, 73370-73388; and Cheriyan et al. (2017) Oncotarget 8, 104928-104945). BALB/cAnNCr, 6-8-weeks old, female mice were purchased from Charles River Laboratories (Horsham, Pa.). Following suitable acclimation of animals, 1×10^6 4T1 TNBC cells were re-suspended in 200 μl of sterile saline, and implanted in the flanks using a 27-gauge needle. Tumors were allowed to grow to 500-1000 mg (˜10 days), and the aseptically harvested, minced into 3-4 mm^3 (30 mg) fragments and transplanted SC into naïve recipient mice using a standard 12 gauge trocar to serially maintain the tumor in vivo. For efficacy studies, tumors serially maintained in vivo were aseptically harvested and minced into 3-4 mm^3 (30 mg) fragments, then bilaterally transplanted subcutaneously along the flanks using a standard 12 gauge trocar. […] For the efficacy studies, SNI-1 was formulated in 8% DMSO (v/v) and 8% Cremophor (v/v) in cell grade water, pH4 as diluent.
Clinical grade ADR stock (2 mg/mL) was diluted to the appropriate concentration with cell grade water; pH4 and clinical grade CIS (1 mg/ml) diluted with USP 0.9% saline; pH6). Mice were monitored daily for changes in condition and body weight. Tumors were measured three times weekly by caliper and tumor volume (mg) was calculated using the following formula: (A×B2)/2 where A and B are the tumor length and width (in mm), respectively. […] Efficacy was also assessed quantitatively using tumor growth delay (T−C) defined as the difference between the median time (in days) required for the treatment group tumors (T) to reach 1000 mg and the median time (days) for the control group tumors to reach the same volume. Post last treatment, tumor tissue and samples from various organs (spleen, liver, kidney, heart, bone, and lungs) were collected. Additionally, the whole blood samples were obtained from a representative tumor-bearing mouse from each group via terminal cardiac puncture. Immuno-histochemical analyses of the tumor and tissue samples were performed for expression of activated RelA (serine 536 phosphorylated p65), total RelA, cleaved caspase-3, and CARP-1 proteins. The levels of pro-inflammatory cytokines in the sera were analyzed by sandwich ELISA assays following methods detailed herein (Cheriyan et al. (2016) Oncotarget 7, 73370-73388; and Cheriyan et al. (2017) Oncotarget 8, 104928-104945).

[8] = system: diffuse large B cell lymphoma cells; experiment: Cell viability, lymphoma; format: cell-based; details: Homo sapiens, read-out: IC50, reduced viabilities
[9] = system: CARP-1 levels, cleavage of PARP or caspase-3; experiment: Western blot for apoptosis markers; format: cell-based
Text: as §2

[10] = system: MDR1; experiment: Levels of drug efflux pump MDR1; format: cell-based, human; details: MDA-MB-468 cells
Text: Of note is that SNI-1 in combination with Adriamycin provoked a greater inhibition of tumor growth when compared with the tumor growth inhibition noted in animals treated with either agent alone. […] Since TNBCs and many other cancers are often known to express drug efflux pumps that contribute to lower efficacy of drugs in clinic and development of drug-resistant tumors, it is likely that the presence/expression of these drug efflux pumps function in part to interfere with a robust anti-tumor response to a combination of SNI-1 and Adriamycin.

[11] = system: human TNBC cells; experiment: Cytokine ELISA of culture media; format: cell-based; details: versus untreated cells
[12] = system: HeLa CARP-1 ko cells; experiment: MTT cell viability; format: cell-based, human
[13] = Dose-route determination in non-tumor-bearing mice; format: in vivo, mouse; details: 5% DMSO, 5% ethanol, 2% Tween 80 formulation
[14] = system: parental and chemo-resistant human and murine TNBC cells and parental renal cancer cells; experiment: Cytokine ELISA of culture media, chemotherapy-induced secretion; format: cell-based; details: SNI-1 with Adriamycin or Cisplatin
[15] = target: T3, NEMO interaction with CARP-1 (Homo sapiens, UniProt Q8IX12); experiment: IP-WB in Gst-NEMO expressing HBC cells, CARP-1; format: cell-based; details: alone or in combination with Adriamycin
T3 construct: expressed in transfected cells; host or cells: HBC cells stably expressing Gst-NEMO
Protocol: as §1, §2

[16] = system: murine TNBC cells; experiment: Cytokine ELISA of culture media; format: cell-based; details: single agent

T1 sequence (Q8IX12 551-580 limits assumed): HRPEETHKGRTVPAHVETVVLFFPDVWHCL
T2 sequence (Q9Y6K9 whole entry): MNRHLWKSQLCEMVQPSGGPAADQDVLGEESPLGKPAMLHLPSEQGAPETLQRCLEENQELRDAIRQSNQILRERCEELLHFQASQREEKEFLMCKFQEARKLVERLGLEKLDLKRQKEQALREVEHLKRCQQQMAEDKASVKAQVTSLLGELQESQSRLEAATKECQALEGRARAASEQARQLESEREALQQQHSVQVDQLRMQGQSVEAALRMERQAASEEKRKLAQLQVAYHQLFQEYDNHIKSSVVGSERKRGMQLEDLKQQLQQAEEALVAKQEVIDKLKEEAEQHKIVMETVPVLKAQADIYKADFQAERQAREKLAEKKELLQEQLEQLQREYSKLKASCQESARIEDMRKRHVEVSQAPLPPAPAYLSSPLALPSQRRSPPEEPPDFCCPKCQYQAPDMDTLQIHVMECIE
T2 sequence (Q13546 whole entry): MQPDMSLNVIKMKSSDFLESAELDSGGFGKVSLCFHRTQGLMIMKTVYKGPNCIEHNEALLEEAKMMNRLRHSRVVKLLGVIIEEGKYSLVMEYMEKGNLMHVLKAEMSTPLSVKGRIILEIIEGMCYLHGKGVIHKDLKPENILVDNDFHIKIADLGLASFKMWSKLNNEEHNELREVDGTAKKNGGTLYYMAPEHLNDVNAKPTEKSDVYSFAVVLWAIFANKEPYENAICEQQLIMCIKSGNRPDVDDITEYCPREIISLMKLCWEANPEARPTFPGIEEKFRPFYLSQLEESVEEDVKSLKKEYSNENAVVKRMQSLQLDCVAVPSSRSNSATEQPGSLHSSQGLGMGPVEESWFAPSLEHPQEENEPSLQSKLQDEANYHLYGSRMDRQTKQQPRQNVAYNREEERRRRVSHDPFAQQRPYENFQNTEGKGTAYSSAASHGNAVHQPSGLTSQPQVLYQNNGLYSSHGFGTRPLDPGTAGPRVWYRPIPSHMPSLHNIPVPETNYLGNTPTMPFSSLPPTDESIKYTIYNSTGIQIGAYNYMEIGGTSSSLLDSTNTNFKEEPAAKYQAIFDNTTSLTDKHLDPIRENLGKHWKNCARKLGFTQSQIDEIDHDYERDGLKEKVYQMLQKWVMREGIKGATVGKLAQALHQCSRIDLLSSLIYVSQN
T3 sequence (Q8IX12 whole entry): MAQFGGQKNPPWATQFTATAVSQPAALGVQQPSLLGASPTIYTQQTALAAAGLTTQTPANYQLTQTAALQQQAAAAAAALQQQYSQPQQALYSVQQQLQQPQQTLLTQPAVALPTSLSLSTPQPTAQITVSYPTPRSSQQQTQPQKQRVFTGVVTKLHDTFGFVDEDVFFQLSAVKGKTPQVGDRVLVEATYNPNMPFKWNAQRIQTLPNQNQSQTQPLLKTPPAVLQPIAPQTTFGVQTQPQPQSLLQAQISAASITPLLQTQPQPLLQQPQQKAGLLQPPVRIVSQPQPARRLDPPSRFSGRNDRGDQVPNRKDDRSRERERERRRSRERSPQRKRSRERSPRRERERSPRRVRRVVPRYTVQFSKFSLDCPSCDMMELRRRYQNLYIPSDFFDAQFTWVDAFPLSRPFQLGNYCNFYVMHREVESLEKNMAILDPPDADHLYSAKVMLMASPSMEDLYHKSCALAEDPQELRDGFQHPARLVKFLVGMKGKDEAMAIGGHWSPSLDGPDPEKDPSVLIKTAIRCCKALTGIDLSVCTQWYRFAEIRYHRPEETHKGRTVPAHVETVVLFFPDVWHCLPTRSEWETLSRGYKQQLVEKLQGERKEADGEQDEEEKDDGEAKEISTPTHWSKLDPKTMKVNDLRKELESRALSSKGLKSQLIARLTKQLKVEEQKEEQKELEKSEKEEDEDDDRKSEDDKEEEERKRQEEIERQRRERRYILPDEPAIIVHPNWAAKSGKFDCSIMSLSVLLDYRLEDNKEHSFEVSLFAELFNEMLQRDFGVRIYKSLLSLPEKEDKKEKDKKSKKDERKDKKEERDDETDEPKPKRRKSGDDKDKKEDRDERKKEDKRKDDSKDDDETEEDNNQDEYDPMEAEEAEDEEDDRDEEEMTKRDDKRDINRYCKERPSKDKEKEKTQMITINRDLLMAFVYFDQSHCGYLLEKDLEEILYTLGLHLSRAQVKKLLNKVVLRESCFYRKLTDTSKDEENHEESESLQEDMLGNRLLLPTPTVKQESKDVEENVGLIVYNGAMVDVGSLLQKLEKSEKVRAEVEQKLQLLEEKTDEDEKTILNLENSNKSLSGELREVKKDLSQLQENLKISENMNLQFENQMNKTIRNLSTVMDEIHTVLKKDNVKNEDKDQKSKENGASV

## Cc1ccc(-n2nnnc2SCC(=O)c2ccc(O)c(O)c2)cc1 [SNI-1, 1-(3,4-dihydroxyphenyl)-2-{(1-(4-methylphenyl)-1H-tetrazol-5-yl)thio}ethanone]
[1]; compound incubated with CARP-1 peptide immobilized on Ni-NTA beads
  binding of Gst-NEMO (221-261) with His-TAT-HA-CARP-1 (551-580) peptide: abrogated binding
[1]; compound incubated with Gst-NEMO peptide immobilized on Gst sepharose beads
  binding of His-TAT-HA-CARP-1 (551-580) with Gst-NEMO (221-261) peptide: failed to abrogate binding
[2]
  loss of viabilities versus similarly treated wild-type HeLa cells: further significant loss of viabilities
[3]
  p65 activation and NEMO phosphorylation by Adriamycin or Cisplatin: diminished p65 activation and NEMO phosphorylation
[4]
  NEMO interaction with RIPK1 (IP-WB): not with RIPK1
[5]
  cytotoxicity at 24 h: 10 to 20%
[6]
  IC50: 4 to 4.5 µM
[7]; 70 mg/kg/dose i.p. QD 1-13
  inhibition of tumor growth: absent to minimal inhibition of tumor growth
  toxicities in the animals: did not provoke toxicities
[7]; mouse, in vivo
  activated caspase-3 in normal tissues (immuno-histochemistry): failed to show presence of activated caspase-3
  hematoxylin and eosin staining of lungs, spleen, heart, liver, kidneys, and bone marrow: did not indicate microscopic alterations
[7]; versus untreated control animal
  cleaved caspase-3 in tumors (immuno-histochemistry): strong presence of cleaved caspase-3
[8]
  IC50: ~10 µM
[9]
  apoptosis (elevated CARP-1 levels, cleavage of PARP or caspase-3): stimulation of apoptosis
[10]
  levels of drug efflux pump MDR1: robust increase
[11]
  levels of TNFα and IL-8 in culture media: modest increase
[12]
  loss of viabilities: failed to provoke any loss of viabilities
[13]
  suitability for chronic intravenous administration: not suitable for chronic intravenous administration
[14]
  secretion of chemotherapy-induced TNFα, IL-8, and IL-1β: robust decline in secretion
[15]
  NEMO interaction with CARP-1 (IP-WB): abrogated NEMO interaction with CARP-1
[16]
  secretion of TNFα and IL-1β: failed to cause increase
